Assay results taken from the supplement of paper PMC5579334.
± gives the standard deviation of the averaged measurements.

Experiments:
[1] = test system: HSC2 (primary human Schwann cells); experiment: % inhibition of CellTiter-Glo viability at highest tested concentration (72 h), relative to DMSO and benzethonium chloride controls; higher = more inhibition
Method in brief: (§1)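 After seeding 750–1000 cells per well of MPNST cell lines or primary human Schwann cells into 384-well plates preprinted with each compound at five concentrations in 10-fold steps, plates were kept 72 h at 37 °C, 5% CO2. Viability was read as CellTiter-Glo ATP luminescence relative to vehicle and positive-control wells, with duplicates averaged where present. The data were fitted with four-parameter logistic models. Drug sensitivity score and relative IC50, censored at the top concentration, derive from the fits, and percent inhibition refers to the top concentration.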

YST-1 [2] = experiment: as above
Method in brief: as §1

ST8814 [3] = experiment: as above
Method in brief: as §1

S1507-2 [4] = experiment: as above
Method in brief: as §1

[5] = test system: HSC1 (primary human Schwann cells); experiment: as above
Method in brief: as §1

HS-Sch-2 [6] = experiment: as above
Method in brief: as §1

S462 [7] = experiment: as above
Method in brief: as §1

HS-PSS [8] = experiment: as above
Method in brief: as §1

STS26T [9] = experiment: as above
Method in brief: as §1

[10] = test system: HSC2 (primary human Schwann cells); experiment: drug sensitivity score (DSS, CellTox-Green cytotoxicity, 72 h) (DSS (dimensionless)); higher = more cytotoxic; extreme values may be limits of the assay
Method in brief: (§2)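 For 72 h at 37 °C, MPNST cell lines and primary human Schwann cells were exposed in 384-well plates to five 10-fold compound dilutions. CellTox-Green, added before seeding at a final 1:1000 dilution, gave fluorescence from DNA released by disrupted cells. Signals were scaled to vehicle and positive-control wells, cultures failing plate quality control were left out, and four-parameter logistic fits were applied. Relative IC50 and drug sensitivity score were derived from the fits, with IC50 censored at the top concentration.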

ST8814 [11] = experiment: as above
Method in brief: as §2

S1507-2 [12] = experiment: as above
Method in brief: as §2

[13] = test system: HSC1 (primary human Schwann cells); experiment: as above
Method in brief: as §2

HS-PSS [14] = experiment: as above
Method in brief: as §2

STS26T [15] = experiment: as above
Method in brief: as §2

[16] = test system: HSC2 (primary human Schwann cells); experiment: drug sensitivity score (DSS, CellTiter-Glo viability, 72 h) (DSS (dimensionless)); higher = more sensitive; extreme values may be limits of the assay
Method in brief: as §1

YST-1 [17] = experiment: as above
Method in brief: as §1

ST8814 [18] = experiment: as above
Method in brief: as §1

S1507-2 [19] = experiment: as above
Method in brief: as §1

[20] = test system: HSC1 (primary human Schwann cells); experiment: as above
Method in brief: as §1

HS-Sch-2 [21] = experiment: as above
Method in brief: as §1

S462 [22] = experiment: as above
Method in brief: as §1

HS-PSS [23] = experiment: as above
Method in brief: as §1

STS26T [24] = experiment: as above
Method in brief: as §1

| Structure (SMILES) | % inhibition [1] | % inhibition (YST-1 [2]) | % inhibition (ST8814 [3]) | % inhibition (S1507-2 [4]) | % inhibition [5] | % inhibition (HS-Sch-2 [6]) | % inhibition (S462 [7]) | % inhibition (HS-PSS [8]) | % inhibition (STS26T [9]) | drug sensitivity score [10] | drug sensitivity score (ST8814 [11]) | drug sensitivity score (S1507-2 [12]) | drug sensitivity score [13] | drug sensitivity score (HS-PSS [14]) | drug sensitivity score (STS26T [15]) | drug sensitivity score [16] | drug sensitivity score (YST-1 [17]) | drug sensitivity score (ST8814 [18]) | drug sensitivity score (S1507-2 [19]) | drug sensitivity score [20] | drug sensitivity score (HS-Sch-2 [21]) | drug sensitivity score (S462 [22]) | drug sensitivity score (HS-PSS [23]) | drug sensitivity score (STS26T [24]) |
| --- | --- | --- | --- | --- | --- | --- | --- | --- | --- | --- | --- | --- | --- | --- | --- | --- | --- | --- | --- | --- | --- | --- | --- | --- |
| Oc1nc(-c2ccc(C(F)(F)F)cc2)nc2c1CSCC2 [XAV-939] (max concentration tested 10000 nM) | 27.6% | 23.1% | 0.935% | 33.8 ± 7.3% | 37% | 7.73% | 6.97 ± 4% | 23% | 16.5% | 0 | 0 | 1.83 ± 2.6 | 0 | 0 | 0 | 4.89 | 2.41 | 0 | 2.76 ± 0.27 | 6.05 | 0 | 0 | 1.55 | 0.217 |
| CC(C)n1cnc2c(NCCc3ccc(O)cc3)nc(-c3csc4ccccc34)nc21 [StemRegenin 1] (max concentration tested 10000 nM) | 37% | -1.94% | 31.3% | 19 ± 17% | 42% | 92.9% | 15.8 ± 7.6% | 46.5% | 41.7% | 0 | 0 | 0 | 0 | 0 | 0.0972 | 2.51 | 0 | 1.77 | 0.495 ± 0.7 | 1.71 | 4.66 | 0.493 ± 0.7 | 2.39 | 1.69 |
| CC[C@@H]1C(=O)OC[C@@H]1Cc1cncn1C [Pilocarpine] (max concentration tested 40000 nM) | -5.33% | -0.64% | -5.43% | -0.921 ± 8.8% | -5.47% | 14.2% | -8.07 ± 3.1% | 3.53% | -5.95% | 0 | 0 | 0 | 0 | 0 | 0 | 0 | 0 | 0 | 0.028 ± 0.04 | 0 | 0.48 | 0 | 0 | 0 |
| COc1cccc2cc(-c3nc([C@H]4CC[C@H](C(=O)O)CC4)n4ncnc(N)c34)[nH]c12 [OSI-027] (max concentration tested 10000 nM) | 80.9% | 78% | 53% | 64.4 ± 4.5% | 84.8% | 49.1% | 58.2 ± 2.5% | 26.6% | 53.1% | 0 | 0 | 2.04 ± 1.4 | 0 | 0 | 0 | 8.56 | 9.46 | 5.6 | 8.32 ± 1 | 10.7 | 2.33 | 7.41 ± 0.52 | 0.84 | 4.45 |
| CCN(CCO)CCCOc1ccc2c(Nc3cc(CC(=O)Nc4cccc(F)c4)[nH]n3)ncnc2c1 [AZD1152-HQPA] (max concentration tested 1000 nM) | 39.6% | 40.6% | 51.2% | 37.8 ± 7.3% | 34.7% | 0.66% | 35.8 ± 1.1% | 9.86% | 41.2% | 0.941 | 4.15 | 0 | 0 | 0 | 3.61 | 8.05 | 11.2 | 4.68 | 3.8464 ± 7.1e-05 | 7.19 | 0 | 8.6 ± 0.56 | 0.81 | 4.07 |
| Cc1ccc(F)c(NC(=O)Nc2ccc(-c3cccc4[nH]nc(N)c34)cc2)c1 [Linifanib] (max concentration tested 1000 nM) | 11.5% | 6.46% | 10.9% | 10 ± 8.1% | -2.2% | 1.61% | 14.7 ± 3.3% | 9.61% | 5.78% | 0 | 0 | 0 | 0 | 0 | 0 | 0.0016 | 0 | 0 | 0.308 ± 0.44 | 0 | 0 | 0.159 ± 0.18 | 0 | 0 |
| CC(C)(C)NC(=O)[C@H]1CC[C@H]2[C@@H]3CC[C@H]4NC(=O)C=C[C@]4(C)[C@H]3CC[C@]12C [Finasteride] (max concentration tested 10000 nM) | 0.769% | 2.29% | 6.23% | -1.69 ± 4.2% | 0.189% | 8.19% | 2.86 ± 8.6% | 4.42% | 9.35% | 0 | 0 | 0.774 ± 1.1 | 0 | 0 | 0 | 0 | 0 | 0 | 0 | 0 | 0 | 0 | 0 | 0 |
| Cc1cnc(NC(=O)Nc2cc(Br)c(C)cc2OC[C@@H]2CNCCO2)cn1 [Rabusertib] (max concentration tested 1000 nM) | 22.3% | 32.8% | 2.25% | 51.1 ± 10% | 11.3% | 84.7% | 91.37 ± 0.63% | 17.4% | 36.4% | 0 | 0 | 1.21 ± 1.4 | 0.0001 | 0 | 1.88 | 1.36 | 1.96 | 0 | 3.39 ± 0.54 | 0.0015 | 4.93 | 5.07 ± 0.2 | 0.93 | 2.75 |
| CC(=O)O[C@@]12CO[C@@H]1C[C@H](O)[C@@]1(C)C(=O)[C@H](O)C3=C(C)[C@@H](OC(=O)[C@H](O)[C@@H](NC(=O)OC(C)(C)C)c4ccccc4)C[C@@](O)([C@@H](OC(=O)c4ccccc4)[C@H]21)C3(C)C [Docetaxel] (max concentration tested 1000 nM) | 74.4% | 75.9% | 89.2% | 83.195 ± 0.0062% | 71.7% | 96.2% | 96.9 ± 1.2% | 52.7% | 99.9% | 24.4 | 27.1 | 22 ± 1.6 | 17.3 | 0.9 | 36 | 22.3 | 29.1 | 24.8 | 20.5 ± 0.58 | 21.9 | 30.8 | 36.7 ± 1.5 | 15.2 | 35.5 |
| CC(=O)OC[C@H]1O[C@@H]([S-])[C@H](OC(C)=O)[C@@H](OC(C)=O)[C@@H]1OC(C)=O.CCP(CC)CC.[Au+] [Auranofin] (max concentration tested 2500 nM) | 95.2% | 91.7% | 66.9% | 25.1 ± 9.3% | 94.8% | 99.9% | 94.62 ± 0.92% | 75.4% | 79.9% | 7.25 | 0.171 | 0.0037 ± 0.0052 | 7.83 | 1.15 | 3.5 | 8.02 | 5.04 | 3.73 | 1.36 ± 1 | 8.86 | 9.71 | 8.14 ± 2 | 4.86 | 5.55 |
| Cc1ccc(NC(=O)c2ccc(CN3CCN(C)CC3)cc2)cc1Nc1nccc(-c2cccnc2)n1 [Imatinib] (max concentration tested 10000 nM) | 8.82% | 53.8% | 33.4% | 49.5 ± 1.2% | 9.96% | 89.5% | 16.7 ± 2.7% | 58.8% | 23.5% | 0 | 1.72 | 0.237 ± 0.34 | 0 | 0.1 | 0 | 0 | 4.29 | 1.36 | 3.9 ± 0.28 | 0 | 4.96 | 0.251 ± 0.2 | 4.08 | 0.675 |
| Cc1ccc(-n2nc(C(C)(C)C)cc2NC(=O)Nc2ccc(OCCN3CCOCC3)c3ccccc23)cc1 [Doramapimod] (max concentration tested 10000 nM) | 32.9% | 80.8% | -7.45% | 0.115 ± 1.9% | 26.7% | 55.8% | 12.1 ± 6.3% | 68.6% | 1.72% | 0 | 0 | 1.81 ± 0.51 | 0 | 1.28 | 0 | 2.53 | 10.5 | 0 | 0 | 1.15 | 3.93 | 0.326 ± 0.46 | 6.23 | 0 |
| Cc1ccc(-c2cc(C(F)(F)F)nn2-c2ccc(S(N)(=O)=O)cc2)cc1 [Celecoxib] (max concentration tested 10000 nM) | 3.55% | 4.7% | -6.53% | -6.68 ± 15% | 11.3% | -1.87% | 0.832 ± 4.7% | -9.36% | -2% | 0 | 0 | 0 | 0 | 0 | 0 | 0 | 0 | 0 | 0 | 0.156 | 0 | 0 | 0 | 0 |
